Experimental data as given in US20240239792A1, “MODULATORS OF BCL-2 OR BCL-2/BCL-XL AND USES THEREOF” (APPICINE THERAPEUTICS (HK) LIMITED, priority 2021, published 2024).

Legend:
[1] = test system: DOHH2 cells; experiment: CellTiter-Glo cell proliferation assay, DOHH2 cells; assay type: cell-based; conditions: Homo sapiens, DOHH-2, 72 hours
Summary of the method: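 GI50 derived from CellTiter-Glo luminescent viability signal. Cells grown in DMEM with 10% FBS received a compound dilution series for 72 h (37 °C, 5% CO2).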

[2] = target: T1, BCL-2 (Homo sapiens, UniProt P10415); experiment: HTRF BCL-2/BAK assay (Cisbio); assay type: binding; conditions: recombinant human Tag1-BCL-2 2 nM, Tag2-BAK 10 nM
T1 construct: purchased Cisbio 63ADK000CB01PEG
T1 sequence (P10415 whole entry): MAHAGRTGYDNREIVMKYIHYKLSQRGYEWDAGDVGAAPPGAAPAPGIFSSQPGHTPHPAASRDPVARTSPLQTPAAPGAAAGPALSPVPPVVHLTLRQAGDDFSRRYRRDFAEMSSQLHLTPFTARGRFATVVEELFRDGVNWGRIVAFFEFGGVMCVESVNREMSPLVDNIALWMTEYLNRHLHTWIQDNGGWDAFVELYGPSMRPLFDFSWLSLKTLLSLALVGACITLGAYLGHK
Description: (§1) Then the pre-mixed anti-Tag1-Eu^3+ and anti-tag2-XL665 were added to the plate and further incubated at room temperature for another 2 hours. The signals ([…]) were read on Envision 2104 instrument. The IC50 for each compound was derived from fitting the signal of 665/615 nM to the increasing compound concentration.
(§2) Using the above assays, the following compounds were tested.

[3] = target: T2, BCL-XL (Homo sapiens, UniProt Q07817); experiment: HTRF BCL-XL/BAK assay (Cisbio); assay type: binding; conditions: recombinant human Tag1-BCL-XL 2 nM, Tag2-BAK 5 nM
T2 construct: purchased Cisbio 63ADK000CB04PEG
T2 sequence (Q07817 whole entry): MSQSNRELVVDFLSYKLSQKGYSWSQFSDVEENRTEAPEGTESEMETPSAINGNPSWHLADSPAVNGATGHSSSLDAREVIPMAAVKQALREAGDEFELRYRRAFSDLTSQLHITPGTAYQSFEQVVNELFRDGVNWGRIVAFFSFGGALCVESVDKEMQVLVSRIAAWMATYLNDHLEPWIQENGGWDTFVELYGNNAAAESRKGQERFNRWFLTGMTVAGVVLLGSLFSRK
Description: as §1, §2

Compound | IC50 [2] [nM] | IC50 [3] [nM] | GI50 [1] [nM]
O=C(NS(=O)(=O)c1ccc(NCC2CCC3(CC2)COC3)c([N+](=O)[O-])c1)c1ccc(N2CCN([C@@H]3CCCCc4c3cccc4[N+](=O)[O-])CC2)cc1Oc1cnc2[nH]ccc2c1 [Compound 74, (R)-2-((1H-pyrrolo[2,3-b]pyridin-5-yl)oxy)-N-((4-(((2-oxaspiro[3.5]nonan-7-yl)methyl)amino)-3-nitrophenyl)sulfonyl)-4-(4-(1-nitro-6,7,8,9-tetrahydro-5H-benzo[7]annulen-5-yl)piperazin-1-yl)benzamide] | < 20 | 20 to 200 | < 50
O=C(NS(=O)(=O)c1ccc(NCC2CC3(COC3)C2)c([N+](=O)[O-])c1)c1ccc(N2CCN([C@@H]3CCCCc4c3cccc4[N+](=O)[O-])CC2)cc1Oc1cnc2[nH]ccc2c1 [Compound 75, (R)-2-((1H-pyrrolo[2,3-b]pyridin-5-yl)oxy)-N-((4-(((2-oxaspiro[3.3]heptan-6-yl)methyl)amino)-3-nitrophenyl)sulfonyl)-4-(4-(1-nitro-6,7,8,9-tetrahydro-5H-benzo[7]annulen-5-yl)piperazin-1-yl)benzamide] | < 20 | 20 to 200 | < 50
O=C(NS(=O)(=O)c1ccc(NCC2CC3(COC3)C2)c([N+](=O)[O-])c1)c1ccc(N2CCN([C@@H]3CCCCc4c(Br)cccc43)CC2)cc1Oc1cnc2[nH]ccc2c1 [Compound 77, (R)-2-((1H-pyrrolo[2,3-b]pyridin-5-yl)oxy)-N-((4-(((2-oxaspiro[3.3]heptan-6-yl)methyl)amino)-3-nitrophenyl)sulfonyl)-4-(4-(1-bromo-6,7,8,9-tetrahydro-5H-benzo[7]annulen-5-yl)piperazin-1-yl)benzamide] | < 20 | 20 to 200 | < 50
O=C(NS(=O)(=O)c1ccc(NCC2CCOCC2)c([N+](=O)[O-])c1)c1ccc(N2CCN([C@@H]3CCCCc4c(Br)cc(F)cc43)CC2)cc1Oc1cnc2[nH]ccc2c1 [Compound 78, (R)-2-((1H-pyrrolo[2,3-b]pyridin-5-yl)oxy)-4-(4-(1-bromo-3-fluoro-6,7,8,9-tetrahydro-5H-benzo[7]annulen-5-yl)piperazin-1-yl)-N-((3-nitro-4-(((tetrahydro-2H-pyran-4-yl)methyl)amino)phenyl)sulfonyl)benzamide] | < 20 | 200 to 2000 | 50 to 500
O=C(NS(=O)(=O)c1ccc(NCC2CCC3(CC2)COC3)c([N+](=O)[O-])c1)c1ccc(N2CCN([C@@H]3CCCCc4c(Br)cc(F)cc43)CC2)cc1Oc1cnc2[nH]ccc2c1 [Compound 79, (R)-2-((1H-pyrrolo[2,3-b]pyridin-5-yl)oxy)-N-((4-(((2-oxaspiro[3.5]nonan-7-yl)methyl)amino)-3-nitrophenyl)sulfonyl)-4-(4-(1-bromo-3-fluoro-6,7,8,9-tetrahydro-5H-benzo[7]annulen-5-yl)piperazin-1-yl)benzamide] | < 20 | 200 to 2000 | 50 to 500

Second part, led by results:

IC50 [2] [nM] | IC50 [3] [nM] | Compound | GI50 [1] [nM]
< 20 | 20 to 200 | O=C(NS(=O)(=O)c1ccc(NCC2CCOCC2)c([N+](=O)[O-])c1)c1ccc(N2CCN([C@@H]3CCCCc4c3cccc4[N+](=O)[O-])CC2)cc1Oc1cnc2[nH]ccc2c1 [Compound 73, (R)-2-((1H-pyrrolo[2,3-b]pyridin-5-yl)oxy)-N-((3-nitro-4-(((tetrahydro-2H-pyran-4-yl)methyl)amino)phenyl)sulfonyl)-4-(4-(1-nitro-6,7,8,9-tetrahydro-5H-benzo[7]annulen-5-yl)piperazin-1-yl)benzamide] | 50 to 500
< 20 | 200 to 2000 | Cc1ccc(S(=O)(=O)N2CCCC(N3CCN(c4ccc(C(=O)NS(=O)(=O)c5ccc(NCC6CCOCC6)c([N+](=O)[O-])c5)c(Oc5cnc6[nH]ccc6c5)c4)CC3)c3ccccc32)cc1 (stereo not drawn) [Compound 76, 2-((1H-pyrrolo[2,3-b]pyridin-5-yl)oxy)-N-((3-nitro-4-(((tetrahydro-2H-pyran-4-yl)methyl)amino)phenyl)sulfonyl)-4-(4-(1-tosyl-2,3,4,5-tetrahydro-1H-benzo[b]azepin-5-yl)piperazin-1-yl)benzamide] | 500 to 5000
